Where a name gives a salt, the structure may show the parent alone.
What was measured:
[1] = test system: A673; test: cells; assay type: functional, cell-based, Homo sapiens;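 further: growth inhibition of human A673 cells, read out through a cell viability assay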
Description: SANGER: Inhibition of human A673 cell growth in a cell viability assay.

[2] = test system: G-402; test: cells; assay type: functional, cell-based, Homo sapiens
Description: SANGER: Inhibition of human G-402 cell growth in a cell viability assay.

[3] = test system: MCF7; test: cells; assay type: functional, cell-based, Homo sapiens;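 further: growth inhibition of human MCF7 cells, read out with a cell viability assay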
Description: SANGER: Inhibition of human MCF7 cell growth in a cell viability assay.

[4] = test system: Huh-7; test: cells; assay type: functional, cell-based, Homo sapiens;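 further: HuH-7 cell growth inhibition, read out with a cell viability assay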
Description: SANGER: Inhibition of human HuH-7 cell growth in a cell viability assay.

[5] = test system: MFE-280; test: cells; assay type: functional, cell-based, Homo sapiens;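 further: growth inhibition of MFE-280 cells, determined with a cell viability readout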
Description: SANGER: Inhibition of human MFE-280 cell growth in a cell viability assay.

[6] = test system: COLO-678; test: cells; assay type: functional, cell-based, Homo sapiens
Description: SANGER: Inhibition of human COLO-678 cell growth in a cell viability assay.

[7] = test system: LC-1F; test: cells; assay type: functional, cell-based, Homo sapiens;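 further: growth inhibition of human LC-1F cells, read out with a cell viability assay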
Description: SANGER: Inhibition of human LC-1F cell growth in a cell viability assay.

[8] = test system: MDA-MB-361; test: cells; assay type: functional, cell-based, Homo sapiens
[9] = test system: HuO-3N1; test: cells; assay type: functional, cell-based, Homo sapiens;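 further: cell viability readout used to measure how strongly compounds suppress proliferation of human HuO-3N1 cells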
Description: SANGER: Inhibition of human HuO-3N1 cell growth in a cell viability assay.

[10] = test system: YT; test: cells; assay type: functional, cell-based, Homo sapiens
Description: SANGER: Inhibition of human YT cell growth in a cell viability assay.

[11] = test system: A204; test: cells; assay type: functional, cell-based, Homo sapiens;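 further: growth inhibition of human A204 cells, read out with a cell viability assay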
Description: SANGER: Inhibition of human A204 cell growth in a cell viability assay.

[12] = test system: OAW-42; test: cells; assay type: functional, cell-based, Homo sapiens;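 further: growth inhibition of OAW-42 cells, read out with a cell viability assay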
Description: SANGER: Inhibition of human OAW-42 cell growth in a cell viability assay.

[13] = test system: SCC-25; test: cells; assay type: functional, cell-based, Homo sapiens;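 further: growth inhibition of SCC-25 cells, measured with a cell viability assay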
Description: SANGER: Inhibition of human SCC-25 cell growth in a cell viability assay.

[14] = test system: OVCAR-5; test: cells; assay type: functional, cell-based, Homo sapiens;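 further: growth inhibition of human OVCAR-5 cells, read out with a cell viability assay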
Description: SANGER: Inhibition of human OVCAR-5 cell growth in a cell viability assay.

[15] = test system: NCI-H28; test: cells; assay type: functional, cell-based, Homo sapiens;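 further: growth inhibition of human NCI-H28 cells, read out as cell viability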
Description: SANGER: Inhibition of human NCI-H28 cell growth in a cell viability assay.

[16] = test system: COLO-741; test: cells; assay type: functional, cell-based, Homo sapiens
Description: SANGER: Inhibition of human COLO-741 cell growth in a cell viability assay.

[17] = test system: CP50-MEL-B; test: cells; assay type: functional, cell-based, Homo sapiens;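 further: growth inhibition of the human cell line, measured with a cell viability read-out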
Description: SANGER: Inhibition of human CP50-MEL-B cell growth in a cell viability assay.

[18] = test system: SIG-M5; test: cells; assay type: functional, cell-based, Homo sapiens;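 further: cell viability assay read-out, measuring how strongly growth of cultured human SIG-M5 cells is inhibited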
Description: SANGER: Inhibition of human SIG-M5 cell growth in a cell viability assay.

[19] = test system: NCI-H661; test: cells; assay type: functional, cell-based, Homo sapiens;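 further: cell viability assay read-out, IC50 being the concentration that inhibits growth of the cells by half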
Description: SANGER: Inhibition of human NCI-H661 cell growth in a cell viability assay.

[20] = test system: MONO-MAC-6; test: cells; assay type: functional, cell-based, Homo sapiens;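 further: cell viability assay measuring growth inhibition of human MONO-MAC-6 cells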
Description: SANGER: Inhibition of human MONO-MAC-6 cell growth in a cell viability assay.

[21] = test system: ACHN; test: cells; assay type: functional, cell-based, Homo sapiens;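 further: cell viability read-out used to gauge how strongly growth of human ACHN cells is suppressed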
Description: SANGER: Inhibition of human ACHN cell growth in a cell viability assay.

[22] = test system: SW837; test: cells; assay type: functional, cell-based, Homo sapiens;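 further: growth inhibition of SW837 cells, determined with a cell viability assay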
Description: SANGER: Inhibition of human SW837 cell growth in a cell viability assay.

[23] = test system: NCCIT; test: SANGER: Inhibition of human NCCIT cell growth in a cell viability assay.; assay type: functional, cell-based
[24] = test system: HCC1937; test: cells; assay type: functional, cell-based, Homo sapiens;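 further: growth inhibition measured with a cell viability read-out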
Description: SANGER: Inhibition of human HCC1937 cell growth in a cell viability assay.

[25] = test system: NCI-H1573; test: cells; assay type: functional, cell-based, Homo sapiens;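 further: growth inhibition of NCI-H1573 cells, read out with a cell viability assay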
Description: SANGER: Inhibition of human NCI-H1573 cell growth in a cell viability assay.

[26] = test system: NCI-H1694; test: cells; assay type: functional, cell-based, Homo sapiens;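 further: cell viability assay measuring inhibition of growth in human NCI-H1694 cells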
Description: SANGER: Inhibition of human NCI-H1694 cell growth in a cell viability assay.

[27] = test system: NCI-H1882; test: cells; assay type: functional, cell-based, Homo sapiens;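 further: growth inhibition of the cell line, determined with a viability assay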
Description: SANGER: Inhibition of human NCI-H1882 cell growth in a cell viability assay.

[28] = test system: 639-V; test: cells; assay type: functional, cell-based, Homo sapiens;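 further: growth inhibition of 639-V cells, read out with a cell viability assay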
Description: SANGER: Inhibition of human 639-V cell growth in a cell viability assay.

[29] = test system: CA46; test: cells; assay type: functional, cell-based, Homo sapiens;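 further: growth inhibition of human CA46 cells, read out by a cell viability assay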
Description: SANGER: Inhibition of human CA46 cell growth in a cell viability assay.

[30] = test system: IMR-5; test: cells; assay type: functional, cell-based, Homo sapiens;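 further: growth inhibition of human IMR-5 cells, read out with a cell viability assay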
Description: SANGER: Inhibition of human IMR-5 cell growth in a cell viability assay.

[31] = test system: T98G; test: cells; assay type: functional, cell-based, Homo sapiens;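 further: growth inhibition of T98G cells, read out by a cell viability assay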
Description: SANGER: Inhibition of human T98G cell growth in a cell viability assay.

[32] = test system: WSU-NHL; test: cells; assay type: functional, cell-based, Homo sapiens;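 further: growth inhibition of human WSU-NHL cells, read out with a cell viability assay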
Description: SANGER: Inhibition of human WSU-NHL cell growth in a cell viability assay.

[33] = test system: NCI-H2009; test: cells; assay type: functional, cell-based, Homo sapiens;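 further: cell viability assay measuring inhibition of NCI-H2009 cell growth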
Description: SANGER: Inhibition of human NCI-H2009 cell growth in a cell viability assay.

[34] = test system: HSC-4; test: cells; assay type: functional, cell-based, Homo sapiens;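 further: growth inhibition of human HSC-4 cells, read out with a cell viability assay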
Description: SANGER: Inhibition of human HSC-4 cell growth in a cell viability assay.

[35] = test system: LCLC-97TM1; test: cells; assay type: functional, cell-based, Homo sapiens;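 further: cell viability assay measuring growth inhibition of human LCLC-97TM1 cells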
Description: SANGER: Inhibition of human LCLC-97TM1 cell growth in a cell viability assay.

[36] = test system: NCI-H2342; test: cells; assay type: functional, cell-based, Homo sapiens;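 further: growth inhibition of the cancer cell line, determined with a cell viability assay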
Description: SANGER: Inhibition of human NCI-H2342 cell growth in a cell viability assay.

[37] = test system: RT-112; test: cells; assay type: functional, cell-based, Homo sapiens
Description: SANGER: Inhibition of human RT-112 cell growth in a cell viability assay.

[38] = test system: NCI-H345; test: cells; assay type: functional, cell-based, Homo sapiens;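 further: growth inhibition of NCI-H345 cells measured with a cell viability assay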
Description: SANGER: Inhibition of human NCI-H345 cell growth in a cell viability assay.

[39] = test system: KYSE-450; test: cells; assay type: functional, cell-based, Homo sapiens;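 further: cell growth inhibition measured by a viability assay in human KYSE-450 cells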
Description: SANGER: Inhibition of human KYSE-450 cell growth in a cell viability assay.

[40] = test system: T84; test: cells; assay type: functional, cell-based, Homo sapiens;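 further: growth inhibition measured with a cell viability readout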
Description: SANGER: Inhibition of human T84 cell growth in a cell viability assay.

[41] = test system: NCI-H2347; test: cells; assay type: functional, cell-based, Homo sapiens;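 further: growth inhibition of the cell line, read out with a cell viability assay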
Description: SANGER: Inhibition of human NCI-H2347 cell growth in a cell viability assay.

[42] = test system: NCI-H716; test: cells; assay type: functional, cell-based, Homo sapiens;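 further: growth inhibition of human NCI-H716 cells, measured by a cell viability assay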
Description: SANGER: Inhibition of human NCI-H716 cell growth in a cell viability assay.

[43] = test system: CAL-39; test: cells; assay type: functional, cell-based, Homo sapiens;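 further: cell viability assay measuring growth inhibition of CAL-39 cells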
Description: SANGER: Inhibition of human CAL-39 cell growth in a cell viability assay.

[44] = test system: MDA-MB-453; test: cells; assay type: functional, cell-based, Homo sapiens
Description: SANGER: Inhibition of human MDA-MB-453 cell growth in a cell viability assay.

[45] = test system: NB7; test: cells; assay type: functional, cell-based, Homo sapiens; settings: Homo sapiens, NB7;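 further: growth inhibition of NB7 cells, read out with a cell viability assay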
Description: SANGER: Inhibition of human NB7 cell growth in a cell viability assay.

[46] = test system: MOLT-13; test: cells; assay type: functional, cell-based, Homo sapiens; settings: Homo sapiens, MOLT-13;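 further: IC50 for suppression of MOLT-13 cell growth, read out with a cell viability assay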
Description: SANGER: Inhibition of human MOLT-13 cell growth in a cell viability assay.

[47] = test system: SW 1116; test: cells; assay type: functional, cell-based, Homo sapiens; settings: Homo sapiens, SW 1116;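 further: growth inhibition of SW1116 cells, read out with a cell viability assay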
Description: SANGER: Inhibition of human SW1116 cell growth in a cell viability assay.

[48] = test system: KNS-62; test: cells; assay type: functional, cell-based, Homo sapiens; settings: Homo sapiens, KNS-62;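 further: inhibition of cell growth, read out with a cell viability assay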
Description: SANGER: Inhibition of human KNS-62 cell growth in a cell viability assay.

COC1=CC(c2cc3ccccc3[nH]2)=N/C1=C\c1[nH]c(C)cc1C [OBATOCLAX MESYLATE]
IC50 ([1]; Homo sapiens, A673): 0.752 µM | IC50 ([2]; Homo sapiens, G-402): 0.565 µM | IC50 ([3]; Homo sapiens, MCF7): < 0.0625 µM | IC50 ([4]; Homo sapiens, Huh-7): 0.379 µM | IC50 ([5]; Homo sapiens, MFE-280): 0.963 µM | IC50 ([6]; Homo sapiens, COLO-678): 3.38 µM | IC50 ([7]; Homo sapiens, LC-1F): 3.72 µM | IC50 ([8]; Homo sapiens, MDA-MB-361): 0.998 µM | IC50 ([9]; Homo sapiens, HuO-3N1): 0.401 µM | IC50 ([10]; Homo sapiens, YT): 0.0734 µM | IC50 ([11]; Homo sapiens, A204): 1.6 µM | IC50 ([12]; Homo sapiens, OAW-42): 0.215 µM | IC50 ([13]; Homo sapiens, SCC-25): 0.0449 µM | IC50 ([14]; Homo sapiens, OVCAR-5): 0.311 µM | IC50 ([15]; Homo sapiens, NCI-H28): 0.741 µM | IC50 ([16]; Homo sapiens, COLO-741): 0.316 µM | IC50 ([17]; Homo sapiens, CP50-MEL-B): 0.0879 µM | IC50 ([18]; Homo sapiens, SIG-M5): < 0.0625 µM | IC50 ([19]; Homo sapiens, NCI-H661): 1.3 µM | IC50 ([20]; Homo sapiens, MONO-MAC-6): 0.438 µM | IC50 ([21]; Homo sapiens, ACHN): 0.132 µM | IC50 ([22]; Homo sapiens, SW837): 0.467 µM | IC50 ([23]; Homo sapiens, NCCIT): 1.38 µM | IC50 ([24]; Homo sapiens, HCC1937): 0.464 µM | IC50 ([25]; Homo sapiens, NCI-H1573): 3.2 µM | IC50 ([26]; Homo sapiens, NCI-H1694): 0.919 µM | IC50 ([27]; Homo sapiens, NCI-H1882): 4.51 µM | IC50 ([28]; Homo sapiens, 639-V): 0.156 µM | IC50 ([29]; Homo sapiens, CA46): 0.0654 µM | IC50 ([30]; Homo sapiens, IMR-5): 0.0324 µM | IC50 ([31]; Homo sapiens, T98G): 5.07 µM | IC50 ([32]; Homo sapiens, WSU-NHL): 0.0755 µM | IC50 ([33]; Homo sapiens, NCI-H2009): 0.347 µM | IC50 ([34]; Homo sapiens, HSC-4): 0.667 µM | IC50 ([35]; Homo sapiens, LCLC-97TM1): 0.0559 µM | IC50 ([36]; Homo sapiens, NCI-H2342): 0.0512 µM | IC50 ([37]; Homo sapiens, RT-112): 0.666 µM | IC50 ([38]; Homo sapiens, NCI-H345): > 16 µM | IC50 ([39]; Homo sapiens, KYSE-450): < 0.0625 µM | IC50 ([40]; Homo sapiens, T84): 0.212 µM | IC50 ([41]; Homo sapiens, NCI-H2347): 0.888 µM | IC50 ([42]; Homo sapiens, NCI-H716): 1.69 µM | IC50 ([43]; Homo sapiens, CAL-39): 0.229 µM | IC50 ([44]; Homo sapiens, MDA-MB-453): 2.23 µM

CC(=O)O[C@H]1C(=O)[C@@]2(C)[C@H]([C@H](OC(=O)c3ccccc3)[C@]3(O)C[C@H](OC(=O)[C@H](O)[C@@H](NC(=O)c4ccccc4)c4ccccc4)C(C)=C1C3(C)C)[C@]1(OC(C)=O)CO[C@@H]1C[C@@H]2O [PACLITAXEL]
IC50 ([7]; Homo sapiens, LC-1F): > 0.102 µM | IC50 ([10]; Homo sapiens, YT): > 0.102 µM | IC50 ([18]; Homo sapiens, SIG-M5): 0.00327 µM | IC50 ([20]; Homo sapiens, MONO-MAC-6): 0.0302 µM | IC50 ([23]; Homo sapiens, NCCIT): 0.0177 µM | IC50 ([26]; Homo sapiens, NCI-H1694): > 0.102 µM | IC50 ([27]; Homo sapiens, NCI-H1882): 0.0642 µM | IC50 ([29]; Homo sapiens, CA46): > 0.102 µM | IC50 [45]: > 0.102 µM | IC50 ([30]; Homo sapiens, IMR-5): 0.0045 µM | IC50 [46]: 0.0164 µM | IC50 ([32]; Homo sapiens, WSU-NHL): > 0.102 µM | IC50 ([38]; Homo sapiens, NCI-H345): > 0.102 µM | IC50 ([42]; Homo sapiens, NCI-H716): > 0.102 µM

CS(=O)(=O)c1ccc(C(=O)Nc2ccc(Cl)c(-c3ccccn3)c2)c(Cl)c1 [VISMODEGIB]
IC50 ([1]; Homo sapiens, A673): > 10 µM | IC50 ([2]; Homo sapiens, G-402): > 10 µM | IC50 ([3]; Homo sapiens, MCF7): > 10 µM | IC50 ([4]; Homo sapiens, Huh-7): > 10 µM | IC50 ([5]; Homo sapiens, MFE-280): > 10 µM | IC50 ([6]; Homo sapiens, COLO-678): > 10 µM | IC50 ([8]; Homo sapiens, MDA-MB-361): > 10 µM | IC50 ([9]; Homo sapiens, HuO-3N1): 9.6 µM | IC50 ([11]; Homo sapiens, A204): > 10 µM | IC50 ([12]; Homo sapiens, OAW-42): > 10 µM | IC50 ([13]; Homo sapiens, SCC-25): > 10 µM | IC50 ([14]; Homo sapiens, OVCAR-5): > 10 µM | IC50 ([15]; Homo sapiens, NCI-H28): > 10 µM | IC50 ([16]; Homo sapiens, COLO-741): > 10 µM | IC50 ([17]; Homo sapiens, CP50-MEL-B): > 10 µM | IC50 ([19]; Homo sapiens, NCI-H661): > 10 µM | IC50 ([21]; Homo sapiens, ACHN): > 10 µM | IC50 ([22]; Homo sapiens, SW837): > 10 µM | IC50 ([24]; Homo sapiens, HCC1937): > 10 µM | IC50 ([25]; Homo sapiens, NCI-H1573): > 10 µM | IC50 ([28]; Homo sapiens, 639-V): > 10 µM | IC50 [47]: > 10 µM | IC50 [45]: > 10 µM | IC50 ([31]; Homo sapiens, T98G): > 10 µM | IC50 ([33]; Homo sapiens, NCI-H2009): > 10 µM | IC50 ([34]; Homo sapiens, HSC-4): > 10 µM | IC50 ([35]; Homo sapiens, LCLC-97TM1): > 10 µM | IC50 ([36]; Homo sapiens, NCI-H2342): > 10 µM | IC50 ([37]; Homo sapiens, RT-112): > 10 µM | IC50 ([39]; Homo sapiens, KYSE-450): > 10 µM | IC50 ([40]; Homo sapiens, T84): > 10 µM | IC50 ([41]; Homo sapiens, NCI-H2347): > 10 µM | IC50 [48]: > 10 µM | IC50 ([43]; Homo sapiens, CAL-39): > 10 µM | IC50 ([44]; Homo sapiens, MDA-MB-453): > 10 µM

BLEOMYCIN
IC50 ([1]; a673): 10.5 µM | IC50 ([2]; g-402): 0.0765 µM | IC50 ([3]; mcf7): 1.17 µM | IC50 ([4]; huh-7): 2.43 µM | IC50 ([5]; mfe-280): 359 µM | IC50 ([6]; colo-678): 36.2 µM | IC50 ([7]; lc-1f): 49.4 µM | IC50 ([8]; mda-mb-361): 0.719 µM | IC50 ([9]; huo-3n1): 87.8 µM | IC50 ([10]; yt): 1.32 µM | IC50 ([11]; a204): 0.2 µM | IC50 ([12]; oaw-42): 0.832 µM | IC50 ([13]; scc-25): 0.415 µM | IC50 ([14]; ovcar-5): 4.75 µM | IC50 ([15]; nci-h28): 2.74 µM | IC50 ([16]; colo-741): 16.4 µM | IC50 ([17]; cp50-mel-b): 3950 µM | IC50 ([18]; sig-m5): 0.586 µM | IC50 ([19]; nci-h661): 2.79 µM | IC50 ([20]; mono-mac-6): 4.59 µM | IC50 ([21]; achn): 0.375 µM | IC50 ([22]; sw837): 1.61 µM | IC50 ([23]; nccit): 1.07 µM | IC50 ([24]; hcc1937): 0.000254 µM | IC50 ([25]; nci-h1573): 268 µM | IC50 ([26]; nci-h1694): 43.9 µM | IC50 ([27]; nci-h1882): 11.5 µM | IC50 ([28]; 639-v): 0.22 µM | IC50 ([29]; ca46): 84.8 µM | IC50 ([30]; imr-5): 0.137 µM | IC50 ([31]; t98g): 63.7 µM | IC50 ([32]; wsu-nhl): 31.6 µM | IC50 ([33]; nci-h2009): 2.56 µM | IC50 ([34]; hsc-4): 153 µM | IC50 ([35]; lclc-97tm1): 1.5 µM | IC50 ([36]; nci-h2342): 0.0138 µM | IC50 ([37]; rt-112): 2.32 µM | IC50 ([38]; nci-h345): 814 µM | IC50 ([39]; kyse-450): 1.93 µM | IC50 ([40]; t84): 13.5 µM | IC50 ([41]; nci-h2347): 5.12 µM | IC50 ([42]; nci-h716): 1420 µM | IC50 ([43]; cal-39): 0.000315 µM | IC50 ([44]; mda-mb-453): 15.4 µM

— ChEMBL document CHEMBL1201861, “Genomics of Drug Sensitity in Cancer screening data, Wellcome Trust Sanger Institute”
